Reference: patent US9439884B2, “Methods for the treatment of immune disorders” (Beth Israel Deaconess Medical Center, Inc., priority 2011, dated 2016)
“Also recorded” adds a separate entry of the source. Read-outs that look alike come from different tables or passages of the source. *1 amine or outer side, *2 acyl side, *3 side chain or, on linkers, in order; H or OH if unused. Where a SMILES comes first, the peptide text is derived from it. Where no end group is shown, it is not given here. [ ]: non-standard residue; d: D form. 15N‑Ala = Ala with single 15N label, C[C@H]([15NH][*:1])C(=O)[*:2]; pS = N[C@@H](COP(=O)(O)O)C(=O)O

How the values were obtained:
[1] = biological target: T1, TLR9 (Homo sapiens, UniProt Q9NR96); conditions: cited from earlier work
T1 sequence (Q9NR96 26-1032): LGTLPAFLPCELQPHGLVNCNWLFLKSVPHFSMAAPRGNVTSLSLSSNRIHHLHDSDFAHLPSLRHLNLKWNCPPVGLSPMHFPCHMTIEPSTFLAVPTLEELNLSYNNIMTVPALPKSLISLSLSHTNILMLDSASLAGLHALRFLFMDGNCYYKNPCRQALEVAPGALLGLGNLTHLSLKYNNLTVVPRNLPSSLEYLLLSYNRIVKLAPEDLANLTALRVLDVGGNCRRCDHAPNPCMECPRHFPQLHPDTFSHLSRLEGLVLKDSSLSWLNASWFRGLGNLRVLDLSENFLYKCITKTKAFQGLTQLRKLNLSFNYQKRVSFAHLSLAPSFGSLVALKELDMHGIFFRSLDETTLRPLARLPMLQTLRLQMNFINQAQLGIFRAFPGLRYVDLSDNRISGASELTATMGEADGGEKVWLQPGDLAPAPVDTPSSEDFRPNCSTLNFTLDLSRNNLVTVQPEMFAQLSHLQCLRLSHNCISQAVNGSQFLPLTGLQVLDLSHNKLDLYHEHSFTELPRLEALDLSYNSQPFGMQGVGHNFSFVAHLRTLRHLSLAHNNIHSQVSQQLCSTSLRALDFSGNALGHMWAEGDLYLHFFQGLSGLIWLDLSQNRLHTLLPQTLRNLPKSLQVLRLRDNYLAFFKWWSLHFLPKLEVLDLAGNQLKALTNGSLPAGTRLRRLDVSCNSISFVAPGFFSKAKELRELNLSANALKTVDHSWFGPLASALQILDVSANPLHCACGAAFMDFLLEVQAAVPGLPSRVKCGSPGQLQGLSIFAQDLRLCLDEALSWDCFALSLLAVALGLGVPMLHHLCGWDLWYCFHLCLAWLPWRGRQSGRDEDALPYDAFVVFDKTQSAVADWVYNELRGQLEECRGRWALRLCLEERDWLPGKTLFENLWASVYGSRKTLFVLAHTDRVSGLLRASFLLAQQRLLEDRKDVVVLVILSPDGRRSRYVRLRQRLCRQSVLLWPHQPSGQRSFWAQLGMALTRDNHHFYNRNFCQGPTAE

[2] = biological target: T2, Pin1 (Homo sapiens, UniProt Q13526); assay: 15N-1H Nzz exchange spectroscopy of Pin1-catalyzed cis-trans isomerization; assay type: biochemical; conditions: pS173P peptide bond; peptide 1 mM, Pin1 17 μM
Text: Because uncatalyzed cis-trans isomerization is a generally slow process (time constant minutes), the equilibrium between cis and trans isomers yields two distinct peaks for residues (such as A175) whose chemical environment differs in the two isomer states. […] The dependence of peak intensities on Nzz mixing time yields the cis-trans exchange rate. […] Based on peak intensities in the absence of Pin1, the pS173P trans:cis ratio is 85:15.

[3] = biological target: T3, Pin1 WW domain (Homo sapiens, UniProt Q13526); assay: 2D NMR (15N-1H HSQC) titration of 15N-WW domain with IRAK1 phosphopeptides; assay type: binding; conditions: chemical shift change of 15N-WW domain as a function of peptide concentration; read-out: dissociation constants (KD)
T3 construct: monitor the changes in the ^15N-WW domain induced by titration with phosphopeptide ligands
Text: To measure the Pin1 interaction with each of the implicated pSer-Pro motifs in IRAK1, we employed two-dimensional (2D) NMR spectroscopy to monitor the changes in the ^15N-WW domain induced by titration with phosphopeptide ligands. In a 2d ^15N-^1H HSQC spectrum of a protein (FIG. 3a), each backbone NH group is represented by a peak, whose position reflects the chemical environment of that NH bond. Ligand binding to the protein is detected by changes in peak positions (fast exchange) or by the appearance of new peaks (slow exchange) as ligand is added. WW binding at each distinct IRAK1 site was measured using phosphopeptides containing residues 126-136 (pSer131-P132), 140-150 ([…]), and 157-180 (pSer173-P174) of IRAK1.

[4] = system: PP2A; assay: Pin1 dephosphorylation in human PBMCs after TLR9 activation by CpG; assay type: cell-based; conditions: human PBMCs pretreated with 5 nM
Text: We have shown that in SLE T cells the message, protein and activity of PP2Ac is increased and is involved in their abnormal function. First, PP2Ac dephosphorylates pCREB and accounts for the decreased IL-2 production. Second, PP2Ac dephosphorylates the transcription factor Elf1 and decreases its ability to bind to the promoters of CD3zeta and FcRgamma genes causing suppression of the first and derepression of the second with significant repercussions in the composition of the CD3 complex in SLE T cells. Third, PP2Ac dephosphorylates (and activates) SP1, which binds to the promoter of IL-17A and promotes its expression. […] Moreover, Pin1 also was dephosphorylated in T cells isolated from CD2:PP2A transgenic mice that overexpresses PP2Ac in T cells developed in Dr. Tsokos laboratory, but not wild-type littermates (FIG. 25E). Therefore, it is reasonable to predict that increased PP2Ac activity may contribute to the dephosphorylation and activation of Pin1 in SLE. Alternatively, because calcineurin (CaN) can also dephosphorylate Pin1 in vitro (FIG. 25) and CaN inhibitors may have a place in the treatment of SLE, we will consider it as a viable alternative to PP2Ac.

[5] = biological target: T2, Pin1; assay: Pin1 PPIase (catalytic activity) assay in vitro; assay type: biochemical
Text: (§1) In this regard, recently, we identified specific and potent Pin1 catalytic peptidic inhibitors and used them to establish a robust and sensitive FP-based HTS to screen approved drugs and NIH Chemical and Genomics Center, which led us to successfully identify all trans retinoic acid (ATRA) and four other Pin1 inhibitors active in cells for further optimization including Cpd4 (FIG. 27A).
(§2) We developed a fluorescence polarization (FP)-based HTS using fluorescence labeled Pin1 peptidic inhibitor, pTide to identify Pin1 inhibitors. Our screening of selected compounds at the Harvard ICCB-L libraries identified the strongest hit to be cis-RA according to the Z-score (FIG. 31A). To confirm that RAs target Pin1, we examined cis-RA and trans-RA in vitro and in cells. […] Cellular Pin1 activity was also reflected by cyclin D1 levels (FIG. 31D), a known Pin1 biomarker.

[6] = biological target: T2, Pin1; assay: Fluorescence polarization (FP)-based HTS / displacement of labeled Pin1 peptidic inhibitor pTide; assay type: binding
Text: as §1, §2

[7] = system: NZBWF1 mice; assay: Proteinuria in lupus-prone NZBWF1 mice (Bio-Rad assay); assay type: in vivo; conditions: female NZBWF1 mice, controlled release pellets, 3.5 months, vs placebo
Experimental: Female lupus-prone NZBWF1 mice were treated with placebo or ATRA for 3.5 months and proteinuria was evaluated by Bio-Rad assay.
Our objective here was to determine if the Pin1 inhibitor we have discovered, ATRA, offer a treatment benefit in preclinical models of SLE. To this end we have been treating NZBWF1 female mice for 3.5 months with controlled release ATRA pellets, which have been well established pharmacologically and which offer the advantage ease of delivery, reduced stress to subjects and controlled drug release. Each cohort has been pre-bleed and urine collected before the start of drug treatment. Subsequently, we have collected serum and urine samples monthly for evaluation of disease markers such as autoantibodies and proteinuria.

[8] = system: Pin1 KO MEFs; assay: Anti-proliferative effect in Pin1 KO MEFs with or without Pin1 re-expression; assay type: cell-based, mouse
[9] = system: lupus prone mouse models; conditions: some lupus prone mouse models; cited from earlier work
[10] = system: MCF-10A; assay: Cell growth, normal breast cells MCF-10A; assay type: cell-based
[11] = system: BM-derived eosinophils; assay: IL-6 ELISA in IL-33-stimulated BM-derived eosinophils; assay type: cell-based; conditions: 100 ng/ml IL-33
[12] = system: pDCs; assay: Cytokine production of pDCs upon TLR9 activation by CpG; assay type: cell-based
[13] = biological target: T4, Pin1 (Mus musculus, UniProt Q9QUR7); assay: Pin1 western and PPIase assay in IL-33-stimulated BM-derived eosinophils; assay type: cell-based; conditions: 100 ng/ml IL-33
T4 construct: endogenous in cells; host or cells: bone-marrow-derived eosinophils

[14] = biological target: T2, Pin1; assay: Pin1 protein/mRNA levels and turnover in cells; assay type: cell-based
Text: as §2

[15] = system: cancer cells; assay: Pin1-dependent cancer cell growth; assay type: cell-based
Text: as §1

[16] = system: SKBR3; assay: Cell growth inhibition, SKBR3; assay type: cell-based; conditions: breast cancer cell line SKBR3
[17] = system: T47D; assay: Cell growth inhibition, T47D; assay type: cell-based; conditions: breast cancer cell line T47D
[18] = biological target: T2, Pin1; assay: Co-crystal structure of Pin1 and ATRA; assay type: binding

T2 sequence (Q13526 whole entry): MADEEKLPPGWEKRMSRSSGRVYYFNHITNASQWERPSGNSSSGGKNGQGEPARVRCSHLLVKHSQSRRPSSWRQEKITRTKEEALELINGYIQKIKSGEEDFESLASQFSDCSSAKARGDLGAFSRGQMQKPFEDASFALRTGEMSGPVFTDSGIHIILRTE
T4 sequence (Q9QUR7 whole entry): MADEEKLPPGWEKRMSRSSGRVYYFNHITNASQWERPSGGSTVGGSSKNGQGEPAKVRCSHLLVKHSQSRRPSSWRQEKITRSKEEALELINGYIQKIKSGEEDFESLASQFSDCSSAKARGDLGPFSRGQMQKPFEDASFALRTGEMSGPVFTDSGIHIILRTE
T3 sequence (Q13526 5-39 limits assumed): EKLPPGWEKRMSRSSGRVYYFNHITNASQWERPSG

Molecule: CCN(CCO)CCCC(C)Nc1ccnc2cc(Cl)ccc12 (stereo not drawn) [hydroxychloroquine]
- stimulation of TLR9 [1]: inhibits stimulation of TLR9

Molecule: ^15N-Ala175-UD157-180: IRAK1 UD157-180 phosphopeptide with a single 15N label at Ala175 (ELGLVPSPASLWPPPP[pS]P[15N‑Ala]PSSTK; not fully specified; also: other phosphorylation sites not given here; UniProt P51617 157-180, looked up, fragment)
- Pin1-catalyzed isomerization rate kex [2]: 27 s⁻¹

Molecule: CC(C)C[C@H](NC(=O)[C@H](CCCCN)NC(=O)[C@H](CCCNC(=N)N)NC(=O)[C@@H]1CCCN1C(=O)[C@H](COP(=O)(O)O)NC(=O)[C@H](Cc1c[nH]c2ccccc12)NC(=O)[C@H](C)NC(=O)[C@H](CCC(=O)O)NC(=O)[C@H](C)NC(=O)[C@@H](N)CCC(=O)O)C(=O)N1CCC[C@H]1C(=O)O [126-136 (pSer131-P132)] (H-EAEAW[pS]PRKLP-OH)
- Kd [3]: 220 ± 15 µM

Molecule: C=C1[C@@H](O)[C@@H]2O[C@]3(CC[C@H](/C=C/[C@@H](C)[C@@H]4CC(C)=C[C@@]5(O[C@H](C[C@@](C)(O)C(=O)O)CC[C@H]5O)O4)O3)CC[C@H]2O[C@@H]1[C@@H](O)C[C@H](C)[C@H]1O[C@@]2(CCCCO2)CC[C@H]1C [okadaic acid]
- Pin1 dephosphorylation after CpG [4]: reversed

Molecule: CC1=C(/C=C/C(C)=C/C=C/C(C)=C\C(=O)O)C(C)(C)CCC1 [cis-RA, 13-cis retinoic acid]
- inhibition of Pin1 catalytic (PPIase) activity [5]: Dose-dependant Pin1 inhibition
- hit ranking according to the Z-score ([6]; screening of Harvard ICCB-L libraries): strongest hit

Molecule: CC1=C(/C=C/C(C)=C/C=C/C(C)=C/C(=O)O)C(C)(C)CCC1 [ATRA, all trans retinoic acid]
- proteinuria [7]: significantly reduced
- sensitivity to anti-proliferative effects ([8]; Pin1 KO MEFs): much more resistant
- drug sensitivity ([8]; Pin1 KO MEFs with stable re-expression of Pin1 (not its inactive mutant)): fully restored
- SLE-related phenotypes [9]: suppress SLE-related phenotypes
- effect on normal breast cells [10]: without any effects
- IL-6 secretion [11]: inhibited
- production of IL6 [12]: suppressed
- production of IL12 [12]: suppressed
- production of TNF-α [12]: suppressed
- Pin1 activation (PPIase assay) [13]: inhibited Pin1 activation
- Pin1 degradation (Pin1 western) [13]: induced Pin1 degradation
- inhibition of Pin1 catalytic (PPIase) activity [5]: inhibited its catalytic activity
- inhibition of Pin1 catalytic (PPIase) activity ([5]; listed as trans-RA): Dose-dependant Pin1 inhibition; also recorded: inhibiting Pin1 PPIase assays
- Pin1 levels ([14]; breast cancer cell lines SKBR3 and T47D): reducing Pin1 levels
- degradation of Pin1 and its substrate D1 ([14]; cancer cells): induced the degradation
- inhibition of Pin1-dependent cancer cell growth [15]: inhibited Pin1-dependent cancer cell growth
- inhibition of cell growth [16]: inhibiting cell growth
- inhibition of cell growth [17]: inhibiting cell growth
- binding site in co-crystal structure [18]: bound to Pin1 active site
- Pin1 inhibition in FP assays ([6]; compared with cis-RA): more potent Pin1 inhibition than cis-RA
- competition with Pin1 catalytic peptidic inhibitors for binding to the Pin1 active site ([6]; preliminary results): effectively competed
